# Laboratory results reported in PMC5218480 (PLoS ONE, 2017).
# Tested on: MV-4-11 cells
# Assay: Gene expression microarray analysis (Affymetrix PrimeView) and GSEA
# Type: cell-based, human
# Set-up: RFU PODN (11730768_x_at) / Fold change /veh PODN (11730768_x_at) / RFU LINC00158 (11744669_a_at) / Fold change /veh LINC00158 (11744669_a_at) / RFU DUSP10 (11751237_a_at) / Fold change /veh DUSP10 (11751237_a_at) / RFU ID3 (11757404_x_at) / Fold change /veh ID3 (11757404_x_at) / RFU PLEKHG5 (11737974_s_at) / Fold change /veh PLEKHG5 (11737974_s_at) / RFU LRRC4B (11730491_at) / Fold change /veh LRRC4B (11730491_at) / RFU GIMAP4 (11747438_a_at) / Fold change /veh GIMAP4 (11747438_a_at) / RFU KRT8 (11758183_x_at) / Fold change /veh KRT8 (11758183_x_at) / RFU CNN1 (11734310_a_at) / Fold change /veh CNN1 (11734310_a_at) / RFU VPS37D (11726825_at) / Fold change /veh VPS37D (11726825_at) / RFU C10orf10 (11716522_x_at) / Fold change /veh C10orf10 (11716522_x_at) / RFU KIR2DL2 /// KIR2DL4 /// KIR2DL5A /// KIR2DL5B /// KIR2DS1 /// KIR2DS2 /// KIR2DS3 /// KIR2DS4 /// KIR3DL3 /// KIR3DL3 /// KIR3DS1 (11738374_at) / Fold change /veh KIR2DL2 /// KIR2DL4 /// KIR2DL5A /// KIR2DL5B /// KIR2DS1 /// KIR2DS2 /// KIR2DS3 /// KIR2DS4 /// KIR3DL3 /// KIR3DL3 /// KIR3DS1 (11738374_at) / RFU C1QL1 (11718748_at) / Fold change /veh C1QL1 (11718748_at) / RFU TMPRSS4 (11747572_a_at) / Fold change /veh TMPRSS4 (11747572_a_at) / RFU HAMP (11756126_x_at) / Fold change /veh HAMP (11756126_x_at) / RFU RNFT2 (11725882_a_at) / Fold change /veh RNFT2 (11725882_a_at) / RFU NR4A2 (11747474_a_at) / Fold change /veh NR4A2 (11747474_a_at) / RFU ABCC12 (11746883_a_at) / Fold change /veh ABCC12 (11746883_a_at) / RFU TMEM136 (11760407_x_at) / Fold change /veh TMEM136 (11760407_x_at) / RFU CLDN22 /// WWC2 (11732394_at) / Fold change /veh CLDN22 /// WWC2 (11732394_at) / RFU HLA-DPB1 (11760878_x_at) / Fold change /veh HLA-DPB1 (11760878_x_at) / RFU SPINT1 (11716480_a_at) / Fold change /veh SPINT1 (11716480_a_at) / RFU GAP43 (11754022_s_at) / Fold change /veh GAP43 (11754022_s_at) / RFU A4GNT (11735810_at) / Fold change /veh A4GNT (11735810_at) / RFU PRB3 (11715151_x_at) / Fold change /veh PRB3 (11715151_x_at) / RFU TUBB4B (11761932_at) / Fold change /veh TUBB4B (11761932_at) / RFU CAPN14 (11732068_a_at) / Fold change /veh CAPN14 (11732068_a_at) / RFU TMCC2 (11721928_a_at) / Fold change /veh TMCC2 (11721928_a_at) / RFU IRGQ (11745062_a_at) / Fold change /veh IRGQ (11745062_a_at) / RFU FAM174B (11720279_a_at) / Fold change /veh FAM174B (11720279_a_at) / RFU TMPRSS4 (11748680_a_at) / Fold change /veh TMPRSS4 (11748680_a_at) / RFU FAM212B (11763350_a_at) / Fold change /veh FAM212B (11763350_a_at) / RFU PLEKHG5 (11743358_a_at) / Fold change /veh PLEKHG5 (11743358_a_at) / RFU ZSCAN30 (11745921_a_at) / Fold change /veh ZSCAN30 (11745921_a_at) / RFU CMKLR1 (11741424_a_at) / Fold change /veh CMKLR1 (11741424_a_at) / RFU LOC101060620 /// MAPK8IP1 (11723275_at) / Fold change /veh LOC101060620 /// MAPK8IP1 (11723275_at) / RFU SPTSSB (11747773_x_at) / Fold change /veh SPTSSB (11747773_x_at) / RFU PRSS12 (11739890_at) / Fold change /veh PRSS12 (11739890_at) / RFU BIN1 (11741810_x_at) / Fold change /veh BIN1 (11741810_x_at) / RFU WNT11 (11732464_a_at) / Fold change /veh WNT11 (11732464_a_at) / RFU C10orf10 (11716521_a_at) / Fold change /veh C10orf10 (11716521_a_at) / RFU C5orf56 (11738089_at) / Fold change /veh C5orf56 (11738089_at) / RFU CYB561 (11721691_x_at) / Fold change /veh CYB561 (11721691_x_at) / RFU ANKRD19P (11752326_a_at) / Fold change /veh ANKRD19P (11752326_a_at) / RFU OR2T12 /// OR2T33 /// OR2T8 (11738714_s_at) / Fold change /veh OR2T12 /// OR2T33 /// OR2T8 (11738714_s_at) / RFU VCAN (11748164_a_at) / Fold change /veh VCAN (11748164_a_at) / RFU JSRP1 (11732532_at) / Fold change /veh JSRP1 (11732532_at) / RFU KRTAP10-11 (11738290_x_at) / Fold change /veh KRTAP10-11 (11738290_x_at) / RFU MYO3A (11730013_a_at) / Fold change /veh MYO3A (11730013_a_at) / RFU EBF3 (11725865_a_at) / Fold change /veh EBF3 (11725865_a_at) / RFU CAMK2N1 (11719241_x_at) / Fold change /veh CAMK2N1 (11719241_x_at) / RFU C5orf56 (11738088_a_at) / Fold change /veh C5orf56 (11738088_a_at) / RFU OLFML3 (11715873_a_at) / Fold change /veh OLFML3 (11715873_a_at) / RFU LOC100653217 /// NTM (11731650_a_at) / Fold change /veh LOC100653217 /// NTM (11731650_a_at) / RFU MAPK11 (11762145_a_at) / Fold change /veh MAPK11 (11762145_a_at) / RFU FIZ1 (11724087_x_at) / Fold change /veh FIZ1 (11724087_x_at) / RFU OASL (11726364_x_at) / Fold change /veh OASL (11726364_x_at) / RFU SOX15 (11748057_x_at) / Fold change /veh SOX15 (11748057_x_at) / RFU CD79A (11719716_a_at) / Fold change /veh CD79A (11719716_a_at) / RFU HIST1H1D (11736915_at) / Fold change /veh HIST1H1D (11736915_at) / RFU CASKIN2 (11723855_a_at) / Fold change /veh CASKIN2 (11723855_a_at) / RFU LOC730098 (11760151_x_at) / Fold change /veh LOC730098 (11760151_x_at) / RFU OR4N2 (11742367_at) / Fold change /veh OR4N2 (11742367_at) / RFU PRRT2 (11749266_a_at) / Fold change /veh PRRT2 (11749266_a_at) / RFU SNX32 (11753110_a_at) / Fold change /veh SNX32 (11753110_a_at) / RFU CDHR5 (11726645_a_at) / Fold change /veh CDHR5 (11726645_a_at) / RFU RCAN1 (11760418_a_at) / Fold change /veh RCAN1 (11760418_a_at) / RFU FAM167A (11723789_a_at) / Fold change /veh FAM167A (11723789_a_at) / RFU FAM26E (11764081_at) / Fold change /veh FAM26E (11764081_at) / RFU ISYNA1 (11749810_s_at) / Fold change /veh ISYNA1 (11749810_s_at) / RFU ACY1 (11761880_at) / Fold change /veh ACY1 (11761880_at) / RFU 11764098_at / Fold change /veh 11764098_at / RFU SAMD14 (11745864_x_at) / Fold change /veh SAMD14 (11745864_x_at) / RFU NPB (11741838_a_at) / Fold change /veh NPB (11741838_a_at) / RFU TMPRSS6 (11731388_a_at) / Fold change /veh TMPRSS6 (11731388_a_at) / RFU KRTAP10-2 (11738614_at) / Fold change /veh KRTAP10-2 (11738614_at) / RFU ARHGAP8 /// PRR5-ARHGAP8 (11727945_x_at) / Fold change /veh ARHGAP8 /// PRR5-ARHGAP8 (11727945_x_at) / RFU KRTAP5-7 /// NADSYN1 (11734609_at) / Fold change /veh KRTAP5-7 /// NADSYN1 (11734609_at) / RFU RASL12 (11751679_a_at) / Fold change /veh RASL12 (11751679_a_at) / RFU CDKN2B (11736163_a_at) / Fold change /veh CDKN2B (11736163_a_at) / RFU PRF1 (11729649_at) / Fold change /veh PRF1 (11729649_at) / RFU, ZNF638 /// ZNF638-IT1 / Fold change vs veh, ZNF638 /// ZNF638-IT1 / RFU, PANK3 / Fold change vs veh, PANK3 / RFU, SH3YL1 / Fold change vs veh, SH3YL1 / RFU, ZEB2 / Fold change vs veh, ZEB2 / RFU, NRIP1 / Fold change vs veh, NRIP1 / RFU, PTTG1IP / Fold change vs veh, PTTG1IP / RFU, CAPN2 / Fold change vs veh, CAPN2 / RFU, MED14 / Fold change vs veh, MED14 / RFU, SNORA58 / Fold change vs veh, SNORA58 / RFU, C1orf63 / Fold change vs veh, C1orf63 / RFU, LRRFIP1 / Fold change vs veh, LRRFIP1 / RFU, NDUFAF7 / Fold change vs veh, NDUFAF7 / RFU, SLC12A2 / Fold change vs veh, SLC12A2 / RFU, IBTK / Fold change vs veh, IBTK / RFU, ESF1 / Fold change vs veh, ESF1 / Fold change vs veh, TMEM50B / RFU, TAOK1 / Fold change vs veh, TAOK1 / RFU, ACBD3 / Fold change vs veh, ACBD3 / RFU, TMA16 / Fold change vs veh, TMA16 / RFU, RWDD3 / Fold change vs veh, RWDD3 / RFU, BCAT1 / Fold change vs veh, BCAT1 / RFU, EDEM3 / Fold change vs veh, EDEM3 / RFU, TMEM33 / Fold change vs veh, TMEM33 / RFU, WDR75 / Fold change vs veh, WDR75 / RFU, AHCTF1 / Fold change vs veh, AHCTF1 / RFU, TFRC / Fold change vs veh, TFRC / RFU, ZDHHC17 / Fold change vs veh, ZDHHC17 / RFU, NOM1 / Fold change vs veh, NOM1 / RFU, ARL8B / Fold change vs veh, ARL8B / RFU, ZBTB11 / Fold change vs veh, ZBTB11 / RFU, TAMM41 / Fold change vs veh, TAMM41 / RFU, KIAA1704 /// LOC100996395 / Fold change vs veh, KIAA1704 /// LOC100996395 / RFU, ING1 / Fold change vs veh, ING1 / RFU, TRMT61B / Fold change vs veh, TRMT61B / RFU, FUBP3 / Fold change vs veh, FUBP3 / RFU, TP53 / Fold change vs veh, TP53 / RFU, TNKS2 / Fold change vs veh, TNKS2 / RFU, ZFP14 / Fold change vs veh, ZFP14 / RFU, ACTR2 / Fold change vs veh, ACTR2 / RFU, PPP3R1 / Fold change vs veh, PPP3R1 / RFU, PIK3R1 / Fold change vs veh, PIK3R1 / RFU, HNRNPA1 / Fold change vs veh, HNRNPA1 / RFU, RNF170 / Fold change vs veh, RNF170 / RFU, ZNF28 / Fold change vs veh, ZNF28 / RFU, RNGTT / Fold change vs veh, RNGTT / RFU, OGT / Fold change vs veh, OGT / RFU, BRD1 / Fold change vs veh, BRD1 / RFU, MARS / Fold change vs veh, MARS / RFU, ZNF655 / Fold change vs veh, ZNF655 / RFU, FAHD1 / Fold change vs veh, FAHD1 / RFU, BDP1 / Fold change vs veh, BDP1 / RFU, LRRCC1 / Fold change vs veh, LRRCC1 / RFU, ARID1A / Fold change vs veh, ARID1A / RFU, ZNF146 / Fold change vs veh, ZNF146 / RFU, ZNF330 / Fold change vs veh, ZNF330 / RFU, GPN3 / Fold change vs veh, GPN3 / RFU, C9orf123 / Fold change vs veh, C9orf123 / RFU, N4BP2L2 / Fold change vs veh, N4BP2L2 / RFU, ARFIP1 / Fold change vs veh, ARFIP1 / RFU, FAM179B / Fold change vs veh, FAM179B / RFU, BCL10 / Fold change vs veh, BCL10 / RFU, UHRF1BP1L / Fold change vs veh, UHRF1BP1L / RFU, BET1 / Fold change vs veh, BET1 / RFU, CNOT2 / Fold change vs veh, CNOT2 / RFU, ZNF268 / Fold change vs veh, ZNF268 / Fold change vs veh, ZNF507 / RFU, DGCR2 / Fold change vs veh, DGCR2 / RFU, WDSUB1 / Fold change vs veh, WDSUB1 / Fold change vs veh, HSP90B1 /// MIR3652 / RFU, ADSS / Fold change vs veh, ADSS / RFU, GK / Fold change vs veh, GK / RFU, ZNF148 / Fold change vs veh, ZNF148 / RFU, TAF9 / Fold change vs veh, TAF9 / RFU, SLC1A5 / Fold change vs veh, SLC1A5 / RFU, SLMO2 / Fold change vs veh, SLMO2 / RFU, ABCC4 / Fold change vs veh, ABCC4 / RFU, LOC101060439 /// RAP1B / Fold change vs veh, LOC101060439 /// RAP1B / RFU, RFX7 / Fold change vs veh, RFX7 / RFU, GTPBP10 / Fold change vs veh, GTPBP10 / RFU, CNEP1R1 / Fold change vs veh, CNEP1R1 / RFU, BIVM-ERCC5 /// ERCC5 / Fold change vs veh, BIVM-ERCC5 /// ERCC5 / RFU, ILF3 / Fold change vs veh, ILF3 / RFU 11762660_at / Fold change /veh 11762660_at / RFU VCAN (11757783_s_at) / Fold change /veh VCAN (11757783_s_at) / RFU DDX43 (11728927_at) / Fold change /veh DDX43 (11728927_at) / RFU KRT8 (11758188_x_at) / Fold change /veh KRT8 (11758188_x_at) / RFU NKD1 (11759106_at) / Fold change /veh NKD1 (11759106_at) / RFU SRD5A1 (11742802_a_at) / Fold change /veh SRD5A1 (11742802_a_at) / RFU TPSAB1 /// TPSB2 (11721975_s_at) / Fold change /veh TPSAB1 /// TPSB2 (11721975_s_at) / RFU GSTM3 (11746129_a_at) / Fold change /veh GSTM3 (11746129_a_at) / RFU IL23R (11737362_x_at) / Fold change /veh IL23R (11737362_x_at) / RFU TMEM51 (11727254_a_at) / Fold change /veh TMEM51 (11727254_a_at) / RFU PIWIL2 (11732686_x_at) / Fold change /veh PIWIL2 (11732686_x_at) / RFU ORM1 (11744905_x_at) / Fold change /veh ORM1 (11744905_x_at) / RFU CCDC152 (11743942_at) / Fold change /veh CCDC152 (11743942_at) / RFU ECM1 (11717891_a_at) / Fold change /veh ECM1 (11717891_a_at) / RFU IL23R (11748794_a_at) / Fold change /veh IL23R (11748794_a_at) / RFU TNFAIP8L3 (11732012_x_at) / Fold change /veh TNFAIP8L3 (11732012_x_at) / RFU MBOAT4 (11741988_at) / Fold change /veh MBOAT4 (11741988_at) / RFU 11764193_at / Fold change /veh 11764193_at / RFU TMEM53 (11763286_at) / Fold change /veh TMEM53 (11763286_at) / RFU MAGEB2 (11727129_at) / Fold change /veh MAGEB2 (11727129_at) / RFU TMEM200A (11744735_a_at) / Fold change /veh TMEM200A (11744735_a_at) / RFU CCDC152 (11751479_a_at) / Fold change /veh CCDC152 (11751479_a_at) / RFU FAM211A (11726209_a_at) / Fold change /veh FAM211A (11726209_a_at) / RFU RGS16 (11746705_a_at) / Fold change /veh RGS16 (11746705_a_at) / RFU VCAN (11755009_s_at) / Fold change /veh VCAN (11755009_s_at) / RFU RHOB (11743442_s_at) / Fold change /veh RHOB (11743442_s_at) / RFU RGS16 (11720943_a_at) / Fold change /veh RGS16 (11720943_a_at) / RFU RGS16 (11720944_at) / Fold change /veh RGS16 (11720944_at) / RFU, VPS4B / Fold change vs veh, VPS4B / RFU, CREB1 / Fold change vs veh, CREB1 / RFU, DNAJC13 / Fold change vs veh, DNAJC13 / RFU, GNAQ / Fold change vs veh, GNAQ / RFU, CDK5R1 / Fold change vs veh, CDK5R1 / RFU, ZRANB3 / Fold change vs veh, ZRANB3 / RFU, CUL4A / Fold change vs veh, CUL4A / RFU, CCNY / Fold change vs veh, CCNY / RFU, UFL1 / Fold change vs veh, UFL1 / RFU, COG3 / Fold change vs veh, COG3 / RFU, DIAPH2 / Fold change vs veh, DIAPH2 / RFU, SKA2 / Fold change vs veh, SKA2 / RFU, AFF3 / Fold change vs veh, AFF3 / RFU, LMF1 / Fold change vs veh, LMF1 / RFU, IPO11 / Fold change vs veh, IPO11 / RFU, DFFB / Fold change vs veh, DFFB / RFU, FOXP1 / Fold change vs veh, FOXP1 / RFU, CARD8 / Fold change vs veh, CARD8 / RFU, STRN3 / Fold change vs veh, STRN3 / RFU, ADK / Fold change vs veh, ADK / RFU, RASSF2 / Fold change vs veh, RASSF2 / RFU, WIPF1 / Fold change vs veh, WIPF1 / RFU, LARP1B / Fold change vs veh, LARP1B / RFU, RASA1 / Fold change vs veh, RASA1 / RFU, RB1 / Fold change vs veh, RB1 / RFU, PPFIA1 / Fold change vs veh, PPFIA1 / RFU, MAT2A / Fold change vs veh, MAT2A / RFU, CCT5 / Fold change vs veh, CCT5 / RFU, WDR92 / Fold change vs veh, WDR92 / RFU, CUX1 / Fold change vs veh, CUX1 / RFU, TTC7A / Fold change vs veh, TTC7A / RFU, TMEM135 / Fold change vs veh, TMEM135 / RFU, DEPTOR / Fold change vs veh, DEPTOR / RFU, CPM / Fold change vs veh, CPM / RFU, DNAJB6 / Fold change vs veh, DNAJB6 / RFU, CACNA2D3 / Fold change vs veh, CACNA2D3 / RFU, DTX4 / Fold change vs veh, DTX4 / RFU, TFCP2 / Fold change vs veh, TFCP2 / RFU, GMCL1 /// GMCL1P1 / Fold change vs veh, GMCL1 /// GMCL1P1 / RFU, AEBP2 / Fold change vs veh, AEBP2 / RFU, SNHG1 /// SNORD22 /// SNORD25 /// SNORD26 /// SNORD27 /// SNORD28 /// SNORD29 /// SNORD31 / Fold change vs veh, SNHG1 /// SNORD22 /// SNORD25 /// SNORD26 /// SNORD27 /// SNORD28 /// SNORD29 /// SNORD31 / Fold change (Aza/veh), C12orf56 (ProbeSet 11735607_a_at) / Fold change (ACY-1035/veh), C12orf56 (ProbeSet 11735607_a_at) / Fold change (Aza/veh), FGFR1OP (ProbeSet 11751329_s_at) / Fold change (ACY-1035/veh), FGFR1OP (ProbeSet 11751329_s_at) / Fold change (Aza/veh), VPS36 (ProbeSet 11739960_a_at) / Fold change (ACY-1035/veh), VPS36 (ProbeSet 11739960_a_at) / RFU SYPL1 (11715823_x_at) / Fold change /veh SYPL1 (11715823_x_at) / RFU IGFBP7 (11715501_s_at) / Fold change /veh IGFBP7 (11715501_s_at) / RFU REEP3 (11722064_at) / Fold change /veh REEP3 (11722064_at) / RFU IGLL1 (11728026_x_at) / Fold change /veh IGLL1 (11728026_x_at): dose or concentration left out as unconfirmed
# Conditions: MV-4-11 cells, 48 hours
smiles,measurement,value
Nc1ncn([C@@H]2O[C@H](CO)[C@@H](O)[C@H]2O)c(=O)n1 [azacitidine],RFU A4GNT (11735810_at),14.85 RFU
